# Test results: patent US20050159442A1, “Protein tyrosine phosphatase 1B (PTP-1B) inhibitors and methods of using the same” (priority 2003, published 2005)
# Biological target: T1, human PTP-1B (Homo sapiens, UniProt P18031)
# T1 construct: The fusion protein, which lacks the carboxyl terminus 35 amino acid residues of PTP-1B; made in house; host or cells: Escherichia coli (pGEX system)
# T1 sequence (P18031 1-400 limits assumed): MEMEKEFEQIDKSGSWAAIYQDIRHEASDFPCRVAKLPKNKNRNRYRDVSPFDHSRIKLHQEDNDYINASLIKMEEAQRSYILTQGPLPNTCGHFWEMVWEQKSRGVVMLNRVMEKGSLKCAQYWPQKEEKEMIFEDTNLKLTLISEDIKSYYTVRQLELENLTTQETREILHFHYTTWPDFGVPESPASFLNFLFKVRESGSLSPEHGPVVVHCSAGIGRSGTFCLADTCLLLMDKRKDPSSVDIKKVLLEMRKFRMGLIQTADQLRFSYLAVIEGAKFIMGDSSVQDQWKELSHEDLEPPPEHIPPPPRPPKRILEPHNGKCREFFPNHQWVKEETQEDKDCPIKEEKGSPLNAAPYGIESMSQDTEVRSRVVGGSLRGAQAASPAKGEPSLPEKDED
# Experiment: Assay for PTP-1B phosphatase activity (malachite green, phosphorylated insulin receptor peptide)
# Format: biochemical
# Conditions: truncated human PTP-1B GST fusion protein, phosphorylated kinase domain of insulin receptor-1 as substrate, absorbance at 650 nm, read-out: IC50 of inhibition of PTP-1B phosphatase activity
# Protocol: PTP-1B phosphatase activity was measured as its ability to dephosphorylate a phosphorylated insulin receptor. In particular, a phosphorylated peptide derived from insulin receptor was used for the assay. The dephosphorylation reaction was monitored using a malachite green assay (Lanzetta et al., Anal Biochem. 1979, 100: 95-7), which measures the release of inorganic phosphate from the activated insulin receptor or the phosphorylated peptide derived from insulin receptor. A PTP-1B inhibitor decreases the yield of inorganic phosphate when it is added to the assay.
# A substantially purified, soluble, truncated human PTP-1B GST fusion protein was used as the source of PTP-1B enzyme. […]
# PTP-1B GST fusion protein (10 ng in 48 μl of assay buffer) was mixed with the phosphorylated kinase domain of insulin receptor-1 (70 μM in 201 μl of assay buffer) and the test compound (at desired concentration in 2 μl DMSO). […] After additional 30 minutes incubation at room temperature, the amount of inorganic phosphate released from the phosphorylated kinase domain of insulin receptor-1 in the reaction mixture was measured by the absorbance at 650 nm. […]
smiles,measurement,value
"Cc1ccc(CC/N=C2\N/C(=N\CCc3ccc(C)cc3)c3cnccc32)cc1 [Formula II, 1,3-Bis-(2-p-tolyl-ethylimino)-2,3-dihydro-1H-pyrrolo[3,4-c]pyridine]",IC50,910 nM
